Measurements: the supplement of paper PMC10307832

Columns and labels:
Experiment in all cases: relative viability (nuclei count vs DMSO), 5 days (fraction); higher = more cells survive
Gemcitabine + Navitoclax = compound: Nc1ccn([C@@H]2O[C@H](CO)[C@@H](O)C2(F)F)c(=O)n1 [Gemcitabine] + CC1(C)CCC(c2ccc(Cl)cc2)=C(CN2CCN(c3ccc(C(=O)NS(=O)(=O)c4ccc(N[C@H](CCN5CCOCC5)CSc5ccccc5)c(S(=O)(=O)C(F)(F)F)c4)cc3)CC2)C1 [Navitoclax] (partner 0.5 µM)
Procedure, shortened: (§1)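 Each reported value is a median over duplicate plates. It expresses relative viability: treated-well nuclei count divided by vehicle-well nuclei count. Lung cancer cell lines in 1536-well plates were dosed by pin tool a day after seeding, alone with one drug or with a fixed anchor-drug dose plus five library-drug doses (not always all listed) in √10 steps, and nuclei were counted after 5 days.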

Gemcitabine + Crizotinib = compound: Nc1ccn([C@@H]2O[C@H](CO)[C@@H](O)C2(F)F)c(=O)n1 [Gemcitabine] + C[C@@H](Oc1cc(-c2cnn(C3CCNCC3)c2)cnc1N)c1c(Cl)ccc(F)c1Cl [Crizotinib] (partner 1 µM)
Procedure, shortened: as §1

Gemcitabine + Dasatinib = compound: Nc1ccn([C@@H]2O[C@H](CO)[C@@H](O)C2(F)F)c(=O)n1 [Gemcitabine] + Cc1nc(Nc2ncc(C(=O)Nc3c(C)cccc3Cl)s2)cc(N2CCN(CCO)CC2)n1 [Dasatinib] (partner 0.075 µM)
Procedure, shortened: as §1

Gemcitabine + Vorinostat = compound: Nc1ccn([C@@H]2O[C@H](CO)[C@@H](O)C2(F)F)c(=O)n1 [Gemcitabine] + O=C(CCCCCCC(=O)Nc1ccccc1)NO [Vorinostat] (partner 1 µM)
Procedure, shortened: as §1

Row | Cell Line | relative viability (Gemcitabine + Navitoclax; first compound 0.001 µM) | relative viability (Gemcitabine + Navitoclax; first compound 0.003162 µM) | relative viability (Gemcitabine + Navitoclax; first compound 0.01 µM) | relative viability (Gemcitabine + Navitoclax; first compound 0.03162 µM) | relative viability (Gemcitabine + Navitoclax; first compound 0.1 µM) | relative viability (Gemcitabine + Crizotinib; first compound 0.001 µM) | relative viability (Gemcitabine + Crizotinib; first compound 0.003162 µM) | relative viability (Gemcitabine + Crizotinib; first compound 0.01 µM) | relative viability (Gemcitabine + Crizotinib; first compound 0.03162 µM) | relative viability (Gemcitabine + Crizotinib; first compound 0.1 µM) | relative viability (Gemcitabine + Dasatinib; first compound 0.001 µM) | relative viability (Gemcitabine + Dasatinib; first compound 0.003162 µM) | relative viability (Gemcitabine + Dasatinib; first compound 0.01 µM) | relative viability (Gemcitabine + Dasatinib; first compound 0.03162 µM) | relative viability (Gemcitabine + Dasatinib; first compound 0.1 µM) | relative viability (Gemcitabine + Vorinostat; first compound 0.001 µM) | relative viability (Gemcitabine + Vorinostat; first compound 0.003162 µM) | relative viability (Gemcitabine + Vorinostat; first compound 0.01 µM) | relative viability (Gemcitabine + Vorinostat; first compound 0.03162 µM) | relative viability (Gemcitabine + Vorinostat; first compound 0.1 µM)
1 | NCI-H1437 | 1.06 | 1.05 | 0.555 | 0.206 | 0.111 | 1.07 | 0.863 | 0.617 | 0.162 | 0.121 | 0.392 | 0.274 | 0.285 | 0.139 | 0.107 | 0.749 | 0.792 | 0.645 | 0.398 | 0.232
2 | NCI-H2170 | 0.72 | 0.52 | 0.458 | 0.183 | 0.162 | 1.39 | 1.23 | 0.615 | 0.161 | 0.155 | 0.609 | 0.673 | 0.415 | 0.114 | 0.104 | 0.829 | 0.843 | 0.538 | 0.113 | 0.105
3 | NCI-H441 | 0.348 | 0.211 | 0.171 | 0.189 | 0.102 | 0.82 | 0.286 | 0.167 | 0.121 | 0.129 | 0.569 | 0.282 | 0.215 | 0.129 | 0.133 | 0.717 | 0.265 | 0.182 | 0.157 | 0.123
4 | SK-LU-1 | 0.526 | 0.224 | 0.0818 | 0.117 | 0.118 | 1.02 | 0.364 | 0.258 | 0.208 | 0.252 | 0.165 | 0.123 | 0.106 | 0.112 | 0.131 | 0.753 | 0.339 | 0.267 | 0.251 | 0.252
5 | BEN | 0.0578 | 0.0698 | 0.0605 | 0.0528 | 0.0444 | 0.874 | 0.563 | 0.139 | 0.113 | 0.09 | 0.331 | 0.254 | 0.18 | 0.0876 | 0.109 | 0.653 | 0.55 | 0.309 | 0.253 | 0.331
6 | LC-2-ad | 0.431 | 0.4 | 0.236 | 0.118 | 0.0927 | 0.471 |  | 0.427 | 0.162 | 0.109 | 0.567 | 0.226 | 0.193 | 0.167 | 0.138 | 0.7 | 0.804 | 0.665 | 0.522 | 0.199
7 | COR-L23 | 0.951 | 0.96 | 0.381 | 0.0768 | 0.0895 | 0.72 | 0.565 | 0.211 | 0.0732 | 0.0754 | 0.606 | 0.495 | 0.201 | 0.0891 | 0.0729 | 0.486 | 0.347 | 0.092 | 0.0851 | 0.1
8 | NCI-H1650 | 1.57 | 0.851 | 0.434 | 0.176 | 0.11 | 0.974 | 0.875 | 0.638 | 0.158 | 0.145 | 0.297 | 0.241 | 0.141 | 0.088 | 0.115 | 0.55 | 0.33 | 0.34 | 0.21 | 0.127
